In patent US7795380B2, “Compositions and methods for nucleic acid delivery” (University of Iowa Research Foundation, priority 2006, dated 2010):
Where no end group is shown, it is not given here. photolabel = not defined here

Assays:
[1] = system: erythrocytes; conditions: cited from earlier work
[2] = stability of the linker peptide by LC/MS; format: physicochemical
Description: To test the hypothesis that the new linker would be stable under normal operating conditions, the linker was first synthesized via solid phase peptide synthesis and then purified by preparative reverse phase HPLC. Characterization and purity of the linker was accomplished through analytical reverse phase HPLC and LC/MS (FIG. 11). The stability of the linker peptide was determined by LC/MS after exposure to a variety of conditions including incubations at room temperature, 37° C., 50° C., and exposure to sunlight.
However, this is not surprising since PL-L1 peptide is a photoactive compound and should photoactivate if provided the proper stimulus.

Substance: H5WYG: cationic peptide from HA-2 with His in place of Glu (GGLFHAIAAHFIHGGWHGLIHGWWG)
- hemolysis activity ([1]; pH 6.4): full hemolytic activity

Substance: PL-Tyr-Lys-Lys-Lys (photolabel-YKKK; reading uncertain; also: printed as PL-Tyr-Lys-Lys-Lys) [PL-L1]
- stability by LC/MS ([2]; exposure to sunlight): moderate degradation
- stability by LC/MS ([2]; room temperature, 37° C., 50° C.): stable

Substance: JTS-1: amphipathic acidic fusogenic peptide developed by Gottschalk and coworkers (GGLFEALLELLESLWELLLEA)
- higher hemolysis activity than INF-7 ([1]; pH of 5): 8 fold
